Values quoted from earlier work, collected in patent US20070281927A1, “Anti-inflammatory and analgesic compositions and related methods” (priority 2006, published 2007).

Key:
[1] = not given; remark: listed apart in the source

Cc1cnc(NC(=O)C2=C(O)c3ccccc3S(=O)(=O)N2C)s1 [Meloxicam, 4-hydroxy-2-methyl-N-(5-methyl-2-thiazolyl-)-2H-1,2-benzothiazine-3-carboxamide 1,1-dioxide]
time to maximum plasma concentration (after oral administration, many individuals): ≥ 5 h
time of second meloxicam concentration peak (post-dose, suggests gastrointestinal recirculation): twelve to fourteen
bioavailability (single 30 mg oral dose compared to 30 mg intravenous bolus injection): 89%
solubility in acidic or neutral mediums ([1]; acidic or neutral mediums): low solubility
solubility at the acidic pH range of the upper gastrointestinal tract ([1]; acidic pH range of the upper gastrointestinal tract): poorly soluble
solubility in water ([1]; water): practically insoluble
